Experimental data from patent publication US20050276764A1, “Topical use of bis-arylimidazo[1,2-a]thiolane derivatives” (Beiersdorf AG, priority 2002, published 2005).

Tests used:
Format in all cases: cell-based
3T3 cells = experiment: 3T3 NRU Phototoxicity Assay (COLIPA Validation Ring Study 1997), neutral red absorption; conditions: for NR50 irradiated / NR50 non-irradiated: 3T3 cells, concentration at which neutral red absorption has fallen to 50% of the check value; for NR50 irradiated: UV-irradiated cultures; for NR50 non-irradiated: non-irradiated cultures; for Phototoxicity in comparison to the non-oxidized comparative compound: photocytotoxicity tests, versus 4,5-bis(4-methoxyphenyl)-imidazo[1,2-a]thiolane; for Quotient non-irradiated/irradiated PIF: ratio of NR50 non-irradiated to irradiated, the lower the quotient, the lower the phototoxicity
Method: The photocytotoxicity of 4,5-bis(4-methoxyphenyl)-imidazo[1,2-a]thiolane-1-oxide and 4,5-bis(4-methoxyphenyl)-imidazo[1,2-a]thiolane-1-dioxide in comparison to 4,5-bis(4-methoxyphenyl)-imidazo[1,2-a]thiolane according to standard protocol “3T3 NRU Phototoxicity Assay” of the COLIPA Validation Ring Study of 1997 is shown in FIG. 1.
In the test method used, the change to the neutral red absorption of 3T3 cells is measured by UV irradiation. Only vital cells absorb the dye, a reduced absorption thus indicates a toxicity of the test substance added. The so-called NR50 value is typically determined for evaluation, i.e. those concentrations of the test substance for which the neutral red absorption has fallen to 50% of the check value. In order to determine the phototoxicity, this value is determined for non-irradiated and irradiated cultures and put in a ratio. The lower the quotient, the lower the phototoxicity (see Table 1).

[1] = tested on: prostaglandin E2 (PGE2) production in human fibroblasts stimulated with LPS; experiment: Inhibition of LPS-induced PGE2 production in human fibroblasts; conditions: for Inhibition of PGE2 production: human fibroblasts, LPS-stimulated, supernatant PGE2 24 hours later, FIG. 2
Method: The influence of 4,5-bis(4-methoxyphenyl)-imidazo[1,2-a]thiolane-1-oxide and 4,5-bis(4-Methoxyphenyl)-imidazo[1,2-a]thiolane-1-dioxide in comparison to 4,5-bis(4-methoxyphenyl)-imidazo[1,2-a]thiolane on eicosanoid production is illustrated in FIG. 2. For the samples in FIG. 2, human fibroblasts were stimulated with LPS and 24 hours later the supernatant PGE2 content was determined. Either Diclofenac with standard effects or dilutions of DKH derivatives were added to the LPS-stimulated cultures. Non-stimulated cultures and cultures only stimulated with LPS were measured as a control test.
Human fibroblasts in culture were induced to release prostaglandin E2 (PGE2) by means of lipopolysaccharide (LPS). Inhibition of this PGE2 production by imidazoles was then determined in the test.

[2] = tested on: LTB4 release by human neutrophile granulocytes stimulated with fMLP; experiment: Release of LTB4 by fMLP-stimulated human neutrophile granulocytes; conditions: for Inhibition of LTB4 release: human neutrophile granulocytes, fMLP-stimulated, supernatant LTB4 2 hours later, FIG. 3
Method: A second test method was used to determine the influence of imidazoles on the release of LTB4 by stimulated granulocytes. Human neutrophile granulocytes from the peripheral blood were isolated, cultured and stimulated for LTB4 production with formylated methionyl-leucyl-phenylalanine (fMLP). Specifically, human neutrophile granulocytes were stimulated with fMLP and 2 hours later the supernatant LTB4 content was determined. Either BayX1005 with standard effects or dilutions of DKH derivatives were added to the fMLP-stimulated cultures. Non-stimulated cultures and cultures only stimulated with fMLP were measured as a control test.

Row | Compound | NR50 irradiated (3T3 cells) | NR50 non-irradiated (3T3 cells) | Phototoxicity in comparison to the non-oxidized comparative compound (3T3 cells) | Quotient non-irradiated/irradiated PIF (3T3 cells) | Production of prostaglandin E2 in fibroblasts [1] | Inhibition of PGE2 production [1] | Production of leukotriene B4 in granulocytes [2] | Inhibition of LTB4 release [2]
1 | COc1ccc(-c2nc3n(c2-c2ccc(OC)cc2)CCS3(=O)=O)cc1 [4,5-bis(4-methoxyphenyl)-imidazo[1,2-a]thiolane-1-dioxide] | 7.77 mg/L | >50 mg/L | considerably reduced phototoxicity | >6.4 | considerably reduced | sufficient inhibition in the concentration range below one microgram per millimeter | considerably reduced | improved inhibition of LTB4 release
2 | COc1ccc(-c2nc3n(c2-c2ccc(OC)cc2)CCS3)cc1 [4,5-bis(4-methoxyphenyl)-imidazo[1,2-a]thiolane, reference compound] | 0.177 mg/L | >10 mg/L |  | >56 |  |  |  | 
3 | COc1ccc(-c2nc3n(c2-c2ccc(OC)cc2)CC[S+]3[O-])cc1 (stereo not shown) [4,5-bis(4-methoxyphenyl)-imidazo[1,2-a]thiolane-1-oxide] | >42.3 mg/L | >100 mg/L | considerably reduced phototoxicity | >2.4 | considerably reduced | sufficient inhibition in the concentration range below one microgram per millimeter | considerably reduced | improved inhibition of LTB4 release
